For the compound `COc1ccc(/C(C)=C/C(C)=O)cc1`, the melting point (in general, the temperature of the solid-liquid transition) lay in the range of 52.5 to 53 °C.

`Cc1ccc(Br)cc1[N+](=O)[O-]` yielded a melting point of 47 °C. Consider `Sc1ccncc1`, for which the melting point was 182 to 189 °C. In turn, `CSC(=Nc1ccccc1)C(C#N)=C(N)SC` displayed a melting point of 177 °C. Under `Cc1nc(NC(=O)NS(=O)(=O)c2cccs2)nc(C)c1C` stands 188 to 189 °C; under `O=Cc1cc([N+](=O)[O-])ccc1N1CCCC1`, 136 to 138 °C.

As for `CCCCOc1ccc(N=Nc2ccc(N)nc2N)cn1`, the melting point turned out to be 129 °C.

In the case of `CCCC(=O)c1ccc(F)cc1`, the melting point came out at 37 °C. Under `c1ccc(Oc2ccccc2-c2ccccc2)cc1` stands 49 °C. Turning to `N[C@H](CCCCP(=O)(O)O)C(=O)O`, the melting point was in the range of 215 to 220 °C. Under `O=C(O)c1ccccc1Cc1ccccc1` stands 118 °C; under `CC1CC(=O)Nc2ccccc2N1` (stereo not given), 180 to 183 °C; under `CCCCCCCC(=O)Oc1ccc(/N=N/c2ccc(CCCC)cc2)cc1`, 63 to 64.2 °C. As for `CC(C)C(C)C(C)(C)C` (stereo not given), the melting point was -121 °C. Under `O=Cc1cc2cc(Br)ccc2o1` stands 129 to 130 °C. `CC(=O)Nc1cc(C)ccc1O` showed a melting point of 151 to 153 °C.

Regarding `CCN(CC)CN1C(=O)C(=Cc2ccco2)SC1=S`, the melting point worked out at 145 °C. `NCCCCCCCCCN` returned a melting point of 38 °C.

On to `C=C(Cl)c1ccccc1`, for which the melting point was -23 °C. For `Cc1nn(-c2ccccc2)c2oc3ncccc3c(=O)c12` the value was 223 to 224 °C; for `CCOC(=O)C(=O)C=P(c1ccccc1)(c1ccccc1)c1ccccc1`, 176 °C. `Cc1nc2ccc(S(=O)(=O)Cl)cc2s1` showed a melting point of 98 to 101 °C.

Turning to `COc1ccccc1N/N=C(\C#N)c1nc2ccccc2n1C`, the melting point was in the range of 200 to 202 °C. As for `CCNC=C(C(=O)OCC)C(=O)c1cnc(Cl)c(F)c1`, the melting point lay in the range of 122 to 124 °C. Compound `C=C(C)C(=O)C(=CC(=O)O)OC` yielded a melting point of 83 °C.

The compound `CCOC(=O)c1ccsc1N` came in with a melting point of 42 to 44 °C. For the compound `OCCN1CCN(CCCN2c3ccccc3Sc3ccc(Cl)cc32)CC1`, the melting point amounted to 94 °C. In turn, `Nc1ccc(S(=O)(=O)O)cc1` returned a melting point of 365 °C. The compound `N=C(N)c1ccc(Oc2ccc(C(=N)N)cc2)cc1` showed a melting point of 216 °C. Compound `OCCN(CCO)c1nc(N2CCCCC2)c2nc(N(CCO)CCO)ncc2n1` returned a melting point of 158 °C. Under `Cc1ccc(C(N)=NO)cc1` stands 136 to 137 °C; under `COc1ccc(C#N)cc1[N+](=O)[O-]`, 148 to 151 °C; under `Nc1ccc(CC(=O)c2ccc(N)cc2)cc1`, 145 °C.

For the compound `NNCCO`, the melting point was -70 °C. For `CC(=O)Nc1cccc(-n2nnnc2S)c1` the value was 185 to 187 °C.

The compound `CS(=O)(=O)OCCCNCCCOS(C)(=O)=O` displayed a melting point of 116 °C.

Compound `C#CC1(O)CCC2C3CCC4=Cc5oncc5CC4(C)C3CCC21C` (stereo not given) displayed a melting point of 235 °C. In turn, `O=C(O)C=Cc1cccc(OC(F)(F)F)c1` registered a melting point of 93 to 96 °C.

Take `CCC(=O)C=Cc1ccccc1`: the melting point stood at 38.5 °C. As for `C=C(C)C(=O)Cl`, the melting point was -60 °C. Consider `O=C(O)C1(c2ccc(Cl)cc2)CCCC1`, for which the melting point was 160 to 164 °C. `CN(CCO)c1nc2c(c(=O)n(C)c(=O)n2C)n1C` displayed a melting point of 105 °C. For `O=C(O)C(=CN(O)c1ccccc1)c1ccccc1` the value was 75 °C; for `Nc1nn2c(-c3ccccc3)cc(=O)[nH]c2c1/N=N/c1ccc(Cl)cc1`, 312 °C; for `COC(=O)CCC(C)C1CCC2C3C(O)C(O)C4CC(OC(C)=O)CCC4(C)C3CC(OC(C)=O)C12C` (stereo not given), 175 to 177 °C. For `CCOC(=O)c1cc2cc3ccccc3cc2cc(C(=O)OCC)c1=O` the value was 161 °C.

`N#CCN` showed a melting point of 101 °C. For `O=C(CBr)c1cccc(Cl)c1` the value was 39 to 41 °C; for `CCOC(=O)c1sc(Cl)nc1C`, 46 to 47 °C; for `CCOC(=O)/C(=N\Nc1ccc([N+](=O)[O-])cc1)C(=O)C(F)(F)F`, 184 °C. In the case of `CCOC(=O)C(F)(F)F`, the melting point was -78 °C.

`Nc1c(Cl)cc(Cl)cc1I` came in with a melting point of 80 °C.

With `N#Cc1c(Cl)ccc([N+](=O)[O-])c1Cl`, the melting point stood at 108 °C. Under `Cc1cc(C)c(C=O)[nH]1` stands 90 to 91 °C; under `CNC(N)=S`, 120 °C; under `Cc1cc(Br)cnc1NC(=O)C(C)(C)C`, 127 °C.

`O=C1OC(=O)C2=C1Cc1cc3c(cc1C2)CC3` registered a melting point of 254 °C.

`OC1CCC(O)CC1` (stereo not given) registered a melting point of 143 °C. Under `N#CCc1ccc(OCc2ccccc2)cc1` stands 68 °C. Regarding `N#CCCCCCC#N`, the melting point is -31.4 °C. On to `CC(=O)Oc1cc(OC(C)=O)cc(C(C)=O)c1`, for which the melting point lay within 91 to 95 °C. For `c1ccnnc1` the value was -8 °C; for `CC(=O)N(C(C)=O)c1cc([N+](=O)[O-])c(/C=C/c2ccccc2)c([N+](=O)[O-])c1/C=C/c1ccccc1`, 175 °C. Under `COc1cc([N+](=O)[O-])ccc1S(=O)(=O)Cl` stands 97 °C; under `O=C(O)c1cccc(-c2ccco2)c1`, 157 to 158 °C; under `O=C(O)c1cnn(-c2ccc([N+](=O)[O-])cc2)c1C(F)(F)F`, 202 to 204 °C. Compound `Cc1cc(C)c(CCl)c(C)c1` came in with a melting point of 40 °C. For `FC(F)(F)c1cc(-c2n[nH]c(=S)[nH]2)cc(C(F)(F)F)c1`, the melting point was 280 °C. `COc1ccc(C(=O)c2coc(S(N)(=O)=O)c2)cc1` returned a melting point of 181 °C. `CCCCCc1cc(O)c2c(c1)OC(C)(C)C1CCC(C)=CC21` (stereo not given) gave a melting point of 200 °C. For `Cc1cccc(Br)c1[N+](=O)[O-]` the value was 26 to 30 °C.

In the case of `Cc1cc(C(F)(F)F)n2nc(N)c(/N=N/c3cccc(C(F)(F)F)c3)c2n1`, the melting point was found to be 171 °C. As to `COc1cc(Cl)ccc1[N+](=O)[O-]`, the melting point was determined as 71 °C. Under `CC(C)(C)OC(=O)N[C@H](Cc1ccc(C#N)cc1)C(=O)O` stands 153 °C; under `O=C(O)c1cc(O)c(Br)c(O)c1`, 270 °C; under `O=[N+]([O-])c1ccc(O)cc1F`, 92 to 95 °C.

In turn, `CS(=O)(=O)c1noc(-c2cccs2)c1C#N` showed a melting point of 167 to 168 °C. As to `CCN(CC)C(=O)C(Cl)=C(C)OP(=O)(OC)OC`, the melting point was -45 °C. `Cc1cc(C(F)(F)F)cc(=O)[nH]1`: the melting point came to 130 °C. Under `C#CCCCCCCCC` stands -44 °C. Compound `CCCCCCCCCCCCCC(=O)OC(C)C` gave a melting point of 3 °C.

For the compound `CC(=O)c1occc1O`, the melting point stood at 100 °C. For `O=CC(Cl)(Cl)Cl`, the melting point was -57.5 °C. As to `O=C(OCCc1ccc(CCOC(=O)c2ccc([N+](=O)[O-])cc2)cc1)c1ccc([N+](=O)[O-])cc1`, the melting point came out at 173 °C.

The compound `O=C1C(=Cc2ccc(F)cc2)CCCC1=Cc1ccc(F)cc1` gave a melting point of 147 to 154 °C.

Compound `C=CCSC(=O)n1c(N)c(-c2ccccc2C)c(=O)n1C(C)C` yielded a melting point of 116 °C.

On to `O=C(O)c1ccc(Cc2ccc(C(=O)O)cc2)cc1`, for which the melting point lay in the range of 346 to 350 °C. The compound `CCCCCCCOc1ccc(N)cc1` displayed a melting point of 45 °C. With `CCCCCCO`, the melting point is -44.6 °C. In turn, `CC(=O)c1c(O)nc2cc3nc(O)c(C(C)=O)c(C)c3cc2c1C` displayed a melting point of 310 °C. For `CCOC(=O)c1cccc(N)c1`, the melting point was determined as 29 °C. The compound `CCCCCCCCCCCC(=O)c1ccccc1` had a melting point of 47 °C. `O=Cc1cccc2ccnn12`: the melting point turned out to be 85 °C. Under `Cc1cc(Br)cc([N+](=O)[O-])c1` stands 83 °C.

Turning to `CC12CCC3C(C(=O)CC4CC(=O)CCC43C)C1CCC2=O` (stereo not given), the melting point lay in the range of 229 to 234 °C. For `O=C(Nc1nccs1)C(C(F)(F)F)C(F)(F)F` the value was 148 °C; for `Cc1ccc([Si](C)(Cl)Cl)cc1`, 57 °C. For `CC(C)CC=NO`, the melting point was determined as 48.5 °C. The compound `COc1cccc(O)c1C=O` gave a melting point of 71 °C. For `CC1(C)[C@H](C(=O)OC(C#N)c2cccc(Oc3ccccc3)c2)[C@@H]1C=C(Cl)Cl` (stereo not given in full), the melting point turned out to be 79 °C. Turning to `Nc1ccc2cc3ccc(N)cc3nc2c1`, the melting point stood at 285 °C. As to `O=C1OC(=O)c2c(F)ccc(F)c21`, the melting point lay within 217 to 221 °C. On to `C(C#CCOc1ccccc1)#CCOc1ccccc1`, for which the melting point is 82 °C. Under `CC(C)(C)OC(=O)N1CCN(c2ccc(I)cc2)CC1` stands 150 to 151 °C.

Take `ON=Cc1ccc2ccccc2c1`: the melting point turned out to be 169 °C.

`ClCc1cc2ccccc2nc1Cl` came in with a melting point of 114 to 115 °C. Compound `NCCNC(=O)C(=O)NCc1ccccn1` came in with a melting point of 257 °C.

For `CCn1ccc2ccccc21`, the melting point came out at 105 °C.

`Cc1cc(C(F)(F)F)cc(NN)n1` showed a melting point of 79 to 81 °C. Compound `Cc1cc2ccccc2oc1=O` yielded a melting point of 91 °C. `CC12CCC3C(CCC4(C)CC(=O)CCC34C)C1CCC2=O` (stereo not given) registered a melting point of 148 °C. In turn, `O=c1[nH]ncc2ccccc12` showed a melting point of 188 °C. As for `COc1ccc2c(c1)CC2O` (stereo not given), the melting point was 39 to 41 °C.

As to `CC(=O)N1CCN(c2ccc(OCC3COC(Cn4ccnc4)(c4ccc(Cl)cc4Cl)O3)cc2)CC1` (stereo not given), the melting point was 146 °C.

`Cn1cnc2c1c(=O)[nH]c(=O)n2C`: the melting point amounted to 357 °C.

The record behind these values is a melting point compilation (Tetko et al.).
